Results on six molecules are retold here after patent publication US20240317827A1, “LINEAR PEPTIDES INHIBITING CK2-MEDIATED PHOSPHORYLATION AND COMPOSITIONS COMPRISING SAME” (CENTRO DE INGENIERÍA GENÉTICA Y BIOTECNOLOGÍA, priority 2021, published 2024).

Like-named read-outs stand apart in the source and are kept apart here. Where a SMILES comes first, the peptide text is derived from it. Bridges are numbered along the chain shown (N, C = ends). [ ]: non-standard residue; d: D form. βAla = NCCC(=O)O

The test system of assay [1] is NCI-H125 cell line (non-small cell lung cancer). Put plainly: cell proliferation assay, NCI-H125 line. Format: cell-based. Here is the method:
The evaluation of the antiproliferative activity of polypeptides F11P13-F11P21 (SEQ ID NO: 12-SEQ ID NO: 20) was performed on the NCI-H125 cell line. […] The antiproliferative effect of the CIGB-300 peptide has been widely characterized in this line (Cirigliano S. M., et al., 2017, Cancer Cell International, 17, 42), therefore, it was selected as a positive control. Tat peptide was used as a negative control. The polypeptides were evaluated at the concentrations of 25, 50, 100 and 200 μM. The cell proliferation assay was performed by a previously described procedure (Perera Y., et al., 2012, J. Pept. Sci, 18 (4):215-23).
The 24 polypeptides identified as SEQ ID NO: 21-SEQ ID NO: 44 maintained the ability to inhibit the phosphorylation of the E7 protein of HPV-16, mediated by CK2, since phosphorylation inhibition values between 60-85% were obtained. […] Evaluation of the antiproliferative activity of synthetic polypeptides generated by positional scanning of Trp (SEQ ID NO: 21-SEQ ID NO: 44) was performed on the NCI-H125 cell line. The test was performed by the procedure previously described. (Perera Y., et al., 2012, J. Pept. Sci, 18 (4): 215-23). Precursor polypeptides (F11P19, F11P20, F11P21) and peptide CIGB-300 were included as positive controls. The polypeptides were evaluated at the concentrations of 12.5; 25; fifty; 100 and 200 μM.
(§1) The evaluation of the antiproliferative activity of synthetic polypeptides A15P35, A15P36 and A15P37 (SEQ ID NO: 46-SEQ ID NO: 48) was performed on the NCI-H125, AsPC-1, PanC-1 (pancreatic carcinoma) and OCI-AML3 (acute myeloid leukemia-3) cell lines. The test was carried out according to the procedure previously described (Perera Y, et al., 2012, J. Pept. Sci, 18 (4):215-23). […] The polypeptides A15P35, A15P36 and A15P37 were able to produce a dose-dependent effect on the proliferation of NCI-H125 cells.
(§2) Antiproliferative assays were performed on the NCI-H125, Hep2C (laryngeal carcinoma) cell lines, and on two bladder cancer lines (MGH-U3 and MGH-U4). The test was carried out according to the procedure previously described (Perera Y., et al, 2012, Pept. Sci, 18 (4):215-23).

The subject of assay [2] is AsPC-1 cell line (pancreatic adenocarcinoma). It counts as cell-based. The protocol: The cell proliferation assay was performed following the procedure previously described (Perera Y, et al., 2012, J. Pept. Sci, 18 (4):215-23).
as §1

Assay [3] concerns PanC-1 (pancreatic carcinoma) cell line. Put plainly: cell proliferation assay, PanC-1 line. Format: cell-based. Conditions: Table 7. The protocol:
as §1

The test system of assay [4] is OCI-AML3 (acute myeloid leukemia-3) cell line. Put plainly: cell proliferation assay, OCI-AML3 line. Format: cell-based. Conditions: Table 7. The protocol:
as §1

For assay [5], the target named is T1, CK2-mediated phosphorylation of the HPV-16 E7 oncoprotein (Human papillomavirus type 16, UniProt P03129).
T1 construct: Glutathione S-Transferase (GST); made in house; host or cells: Escherichia coli
Put plainly: in vitro phosphorylation reaction, E7 oncoprotein (GST fusion) as substrate. Format: biochemical. Conditions: procedure of Example 2. Here is the method: The assay to measure the effect of these peptides on the CK2-mediated phosphorylation of the HPV-16 E7 oncoprotein, was based on an in vitro phosphorylation reaction, where the E7 oncoprotein of HPV-16 expressed in Escherichia coli was used as substratum. This oncoprotein was obtained as a fusion protein to Glutathione S-Transferase. The assay was performed according to the procedure previously described. (Perea S. E., et al., 2004, Cancer Res., 64: 7127-7129). The results are shown in FIG. 1, and indicate that the peptides identified as SEQ ID NO: 1-SEQ ID NO: 9 are capable of inhibiting CK2-mediated phosphorylation of the E7 protein of HPV-16.

Assay [6] has as its system Hep2C (laryngeal carcinoma) cell line. Put plainly: cell proliferation assay, Hep2C line. Format: cell-based. Conditions: Table 9. The protocol: as §2
Assay [7] relates to MGH-U3 bladder cancer line. Put plainly: cell proliferation assay, MGH-U3 line. Format: cell-based, human. Conditions: Table 9. The protocol:
as §2

Assay [8] deals with MGH-U4 bladder cancer line. Put plainly: cell proliferation assay, MGH-U4 line. It counts as cell-based. Conditions: Table 9. The protocol:
as §2

The test system of assay [9] is cell proliferation in vitro. Conditions: literature value; read-out: mean maximum inhibitory concentration (IC50), cell proliferation in vitro; cited from earlier work.
The target in assay [10] is phosphoacceptor site of the CK2 enzyme in the E7 protein of HPV-16 (BIOT peptide, […]) (Human papillomavirus type 16, UniProt P03129). Conditions: peptide coupled to resin; BIOT peptide 120 μg/mL; streptavidin-alkaline phosphatase, BCIP.
Protocol: For the identification of bioactive linear peptides that interact with the phosphoacceptor site of the CK2 enzyme, a combinatorial library of synthetic linear peptides named BCP-1 by type of “one-bead-one-compound” was screened, containing more than 16 million of different peptide sequences. […] Screening was performed with a biotinylated synthetic peptide, called BIOT, which contains the phosphoacceptor site of the CK2 enzyme in the E7 substrate of HPV-16 ([sequence], identified as SEQ ID NO: 63). The streptavidin-alkaline phosphatase conjugate was used as recognition molecule, and p-toluidine salt of 5-bromo-4-chloro-3-indolyl-phosphate (BCIP) was used as substrate for development. The blue color facilitates the visual differentiation of the beads containing bioactive sequences recognized by the BIOT peptide, compared to the bright light yellow color of the TentaGel resin at the BCP-1 library.
The BCP-1 library was placed in a polypropylene reactor with a vacuum filtration system and mechanical agitation. It was washed with purified water and saline phosphate buffer solution (PBS) pH 7.4; and blocked with 1% bovine serum albumin (BSA) in PBS pH 7.4 for one hour. Solvents and reagents were removed by vacuum filtration. The library was incubated with 80 mL of a BIOT peptide solution at 150 g/mL in 1% BSA in PBS pH 7.4, for 16 h at 4° C. […]
In assay [11] the target is T2, E7 oncoprotein of HPV-16 expressed in Escherichia coli as a fusion protein to Glutathione S-Transferase (Human Papillomavirus (HPV)-16, UniProt P03129 1-98).
T2 sequence: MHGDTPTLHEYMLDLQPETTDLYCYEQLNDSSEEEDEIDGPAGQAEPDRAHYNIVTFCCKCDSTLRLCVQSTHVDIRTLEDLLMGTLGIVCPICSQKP
Put plainly: cell-based or functional assay.

Where [12] appears, read: Table 7, read-out: IC50 (μM) NCI-H125.

For `N=C(N)NCCC[C@H](NC(=O)CN)C(=O)N[C@@H](CCCCN)C(=O)N[C@@H](CCCCN)C(=O)N[C@@H](CCCNC(=N)N)C(=O)N[C@@H](CCCNC(=N)N)C(=O)N[C@@H](CCC(N)=O)C(=O)N[C@@H](CCCNC(=N)N)C(=O)N[C@@H](CCCNC(=N)N)C(=O)N[C@@H](CCCNC(=N)N)C(=O)N1CCC[C@H]1C(=O)N1CCC[C@H]1C(=O)N[C@@H](CCC(N)=O)C(=O)NCCC(=O)N[C@@H](Cc1c[nH]c2ccccc12)C(=O)N[C@@H](CCCCN)C(=O)N[C@@H](CCCNC(=N)N)C(=O)N[C@@H](CO)C(=O)N[C@@H](CCCNC(=N)N)C(=O)N[C@@H](Cc1ccc(O)cc1)C(=O)N[C@@H](Cc1c[nH]c2ccccc12)C(=O)N1CCC[C@H]1C(N)=O` [A15P35, GRKKRRQRRRPPQ-βA-WKRSRYWP] (H-GRKKRRQRRRPPQ[βAla]WKRSRYWP-NH2; N-terminus and C-terminus assumed), the IC50 was 106 µM in [1] (setting [12]); 127 µM in assay [2] (Table 7, read-out: IC50 (μM) AsPC-1); 145 µM in assay [3]; 130 µM in assay [4].
In turn, `CSCC[C@@H]1NC(=O)[C@H](Cc2c[nH]c3ccccc23)NC(=O)[C@@H](NC(=O)CCNC(=O)[C@H](CCC(N)=O)NC(=O)[C@@H]2CCCN2C(=O)[C@@H]2CCCN2C(=O)[C@H](CCCNC(=N)N)NC(=O)[C@H](CCCNC(=N)N)NC(=O)[C@H](CCCNC(=N)N)NC(=O)[C@H](CCC(N)=O)NC(=O)[C@H](CCCNC(=N)N)NC(=O)[C@H](CCCNC(=N)N)NC(=O)[C@H](CCCCN)NC(=O)[C@H](CCCCN)NC(=O)[C@H](CCCNC(=N)N)NC(=O)CN)CSSC[C@@H](C(N)=O)NC(=O)[C@H]([C@@H](C)O)NC(=O)CNC(=O)[C@H](CC(C)C)NC(=O)[C@H](Cc2c[nH]cn2)NC(=O)[C@H](CCCNC(=N)N)NC(=O)[C@@H]2CCCN2C(=O)[C@H](CO)NC1=O` [CIGB-300, cycle (Cys15-Cys25) GRKKRRQRRRPPQ-βA-CWMSPRHLGTC, reference compound] (H-GRKKRRQRRRPPQ[βAla]CWMSPRHLGTC-NH2; disulfide 15-25; N-terminus and C-terminus assumed) registered a phosphorylation inhibition in [5] of 87%. Further, the “percentage of inhibition of proliferation” value in assay [1] (NCI-H125, evaluated at 25, 50, 100 and 200 μM, concentration not given) was determined as 50%. Also, the IC50 came to 64 µM in assay [1] (NCI-H125, read-out: IC50 (dose-effect curves)); 64 µM in [1] (setting [12]); 64 µM in assay [1] (Table 9, read-out: IC50 (μM) NCl-H125); 102 µM in assay [2] (AsPC-1, read-out: IC50); 156 µM in [3]; 63 µM in [4]. For the same molecule, the IC50 in [6] was 61 µM; in [7] it was 327 µM; in assay [8], 335 µM.
On to `O=C(O)c1ccc2c(c1)nc(Nc1cccc(Cl)c1)c1ccncc12` [CX-4945], for which the IC50 in assay [9] was 5.5 µM.
Consider EQPAFHDP [P10], for which the “blue color development after enzymatic assay (interaction with the CK2 phosphoacceptor site)” value in assay [10] is reported as “did not develop blue coloration”.
Regarding VAGFFLDP [P11], in [10], the “blue color development after enzymatic assay (interaction with the CK2 phosphoacceptor site)” value is listed as “did not develop blue coloration”.

B1: peptide D15P106 (RKRSWYWP) (peptide)
peptide: RKRSWYWP
In the case of B1, the “inhibition of CK2-mediated phosphorylation of HPV-16 E7 (in vitro phosphorylation reaction, GST-E7 substrate)” value in [11] worked out at 82%.
